Earlier results in paper PMC12150326 (The Journal of Organic Chemistry, 2025).
“And” between values parts separate entries of the source, which are not always exact repeats. Identical values can stand only once. Like-named read-outs stand apart in the source and are kept apart here.

Legend:
Design in all cases: method as in NCI-60 database
SK-MEL-5 = SK-MEL-5 ref NCI-60 database, cited from earlier work
KM20L2 = KM20L2 ref NCI-60 database, cited from earlier work
UACC-257 = UACC-257 ref NCI-60 database; cited from earlier work
RPMI-8226 = RPMI-8226 ref NCI-60 database, cited from earlier work
HL-60(TB) = HL-60(TB) ref NCI-60 database, cited from earlier work
COLO 205 = COLO 205 ref NCI-60 database, cited from earlier work
HOP-92 = HOP-92 ref NCI-60 database, cited from earlier work
T-47D = T-47D ref NCI-60 database, cited from earlier work
HCT-116 = HCT-116 ref NCI-60 database, cited from earlier work
SNB-75 = SNB-75 ref NCI-60 database, cited from earlier work
SF-295 = SF-295 ref NCI-60 database, cited from earlier work
HS 578T = HS 578T ref NCI-60 database; cited from earlier work
HCC-2998 = HCC-2998 ref NCI-60 database, cited from earlier work
IGROV1 = IGROV1 ref NCI-60 database, cited from earlier work
HOP-62 = HOP-62 ref NCI-60 database, cited from earlier work
MDA-N = MDA-N ref NCI-60 database, cited from earlier work
ACHN = ACHN ref NCI-60 database, cited from earlier work
NCI 60 cell lines = settings: cited from earlier work; for _MID Log10LC50: mean graph midpoint ref NCI-60 database
NCI-H23 = NCI-H23 ref NCI-60 database, cited from earlier work
[1] = mean graph ref NCI-60 database, listed as 757/1
[2] = mean graph ref NCI-60 database, listed as 757/9

What does the source list for `COc1cc2c(c(OC)c1OC)-c1ccc(OC)c(=O)cc1[C@@H](NC(C)=O)CC2` [Colchicine, (−)-Colchicine]?
GI50 (SK-MEL-5): < 10 nM; Log10GI50 (SK-MEL-5): < -8 Molar; Log10GI50 (SK-MEL-5; listed as 757/1): -7.61 Molar; Log10TGI (SK-MEL-5; listed as 757/9): -7.58 Molar; Log10GI50 (SK-MEL-5; listed as 757/21): < -8.00 Molar; Log10LC50 (SK-MEL-5; listed as 757/21): > -4.00 Molar; Log10GI50 (KM20L2; listed as 757/1): < -8.00 Molar and -7.72 Molar; Log10LC50 (KM20L2; listed as 757/1): -7.10 Molar; Log10GI50 (KM20L2; listed as 757/21): -7.77 Molar; Log10LC50 (KM20L2; listed as 757/21): -7.19 Molar; Log10TGI (KM20L2; listed as 757/21): -7.48 Molar; GI50 (UACC-257): > 100000 nM; Log10GI50 (UACC-257): > -4 Molar; Log10LC50 (UACC-257): > -4.00 Molar; Log10TGI (UACC-257): > -4.00 Molar; GI50 (RPMI-8226): < 10 nM; Log10GI50 (RPMI-8226): < -8 Molar; Log10LC50 (RPMI-8226): > -4.00 Molar; Log10TGI (RPMI-8226): > -4.00 Molar; Log10GI50 (RPMI-8226; listed as 757/1): < -8.00 Molar; GI50 (HL-60(TB)): 10 nM; Log10GI50 (HL-60(TB)): -7.89 Molar; Log10LC50 (HL-60(TB)): > -4.00 Molar; Log10GI50 (HL-60(TB); listed as 757/1): -7.58 Molar; Log10GI50 (HL-60(TB); listed as 757/21): < -8.00 Molar and -7.89 Molar; GI50 (COLO 205): 10 nM; Log10GI50 (COLO 205): -7.83 Molar; Log10GI50 (COLO 205; listed as 757/1): -5.74 Molar; Log10GI50 (COLO 205; listed as 757/21): < -8.00 Molar and -7.83 Molar; Log10LC50 (COLO 205; listed as 757/21): -7.24 Molar; Log10TGI (COLO 205; listed as 757/21): -7.89 Molar; Log10LC50 (HOP-92): > -4.00 Molar; Log10GI50 (HOP-92; listed as 757/1): -7.73 Molar; Log10TGI (HOP-92; listed as 757/1): > -4.00 Molar; Log10GI50 (HOP-92; listed as 757/21): < -8.00 Molar; GI50 (T-47D): 75700 nM; Log10GI50 (T-47D): -4.12 Molar; Log10LC50 (T-47D): > -4.00 Molar; Log10TGI (T-47D): > -4.00 Molar; Log10GI50 (T-47D; listed as 757/9): > -4.00 Molar; Log10GI50 (T-47D; listed as 757/21): -4.21 Molar; GI50 (HCT-116): 30 nM; Log10GI50 (HCT-116): -7.49 Molar; Log10LC50 (HCT-116): > -4.00 Molar; Log10GI50 (HCT-116; listed as 757/1): -7.41 Molar; Log10TGI (HCT-116; listed as 757/1): > -4.00 Molar and -4.23 Molar; Log10GI50 (HCT-116; listed as 757/9): -7.79 Molar; GI50 (SNB-75): 910 nM; Log10GI50 (SNB-75): -6.04 Molar; Log10LC50 (SNB-75): > -4.00 Molar; Log10GI50 (SNB-75; listed as 757/1): < -8.00 Molar; Log10TGI (SNB-75; listed as 757/1): -5.53 Molar; Log10TGI (SNB-75; listed as 757/9): < -8.00 Molar; Log10TGI (SNB-75; listed as 757/21): > -4.00 Molar; Log10GI50 (SF-295; listed as 757/1): < -8.00 Molar and -7.70 Molar; Log10LC50 (SF-295; listed as 757/1): -4.51 Molar; Log10GI50 (SF-295; listed as 757/9): -7.68 Molar and -7.69 Molar; Log10TGI (SF-295; listed as 757/9): -7.30 Molar; Log10GI50 (SF-295; listed as 757/21): -7.88 Molar and -7.77 Molar; Log10LC50 (SF-295; listed as 757/21): > -4.00 Molar; Log10TGI (SF-295; listed as 757/21): -7.39 Molar and -7.37 Molar; Log10LC50 (HS 578T): > -4.00 Molar; GI50 (HCC-2998): 30 nM; Log10GI50 (HCC-2998): -7.51 Molar; Log10LC50 (HCC-2998): > -4.00 Molar; Log10GI50 (HCC-2998; listed as 757/1): -7.48 Molar; Log10GI50 (HCC-2998; listed as 757/9): -7.78 Molar; Log10TGI (HCC-2998; listed as 757/9): -7.59 Molar and -7.33 Molar; GI50 (IGROV1): 52 nM; Log10GI50 (IGROV1): -7.28 Molar; Log10LC50 (IGROV1): > -4.00 Molar; Log10GI50 (IGROV1; listed as 757/9): < -8.00 Molar; Log10TGI (IGROV1; listed as 757/9): -7.80 Molar; Log10TGI (IGROV1; listed as 757/21): > -4.00 Molar; Log10LC50 (HOP-62): > -4.00 Molar; Log10TGI (HOP-62): > -4.00 Molar; Log10GI50 (HOP-62; listed as 757/9): -7.43 Molar; Log10GI50 (MDA-N): < -8.00 Molar; Log10LC50 (MDA-N): > -4.00 Molar; Log10TGI (MDA-N; listed as 757/9): < -8.00 Molar and -7.91 Molar; Log10TGI (MDA-N; listed as 757/21): -4.25 Molar; GI50 (ACHN): 372 nM; Log10GI50 (ACHN): -6.43 Molar; Log10LC50 (ACHN): > -4.00 Molar; Log10TGI (ACHN): > -4.00 Molar; Log10GI50 (ACHN; listed as 757/21): -6.40 Molar and -6.43 Molar; _MID Log10LC50 (NCI 60 cell lines; listed as 757/1): -4.07 Molar and -4.08 Molar; _MID Log10LC50 (NCI 60 cell lines; listed as 757/21): -4.0 Molar and -4.12 Molar and -4.01 Molar; Delta Log10GI50 (NCI 60 cell lines; [1]): 0.39 and 0.68; Delta Log10LC50 (NCI 60 cell lines; [1]): 3.26 and 3.02; Delta Log10TGI (NCI 60 cell lines; [1]): 3.04 and 2.76; Range Log10GI50 (NCI 60 cell lines; [1]): 3.72; Range Log10LC50 (NCI 60 cell lines; [1]): 3.33 and 3.1; Range Log10TGI (NCI 60 cell lines; [1]): 3.41; Range Log10GI50 (NCI 60 cell lines; [2]): 1.41; Range Log10LC50 (NCI 60 cell lines; [2]): 4.0; Range Log10TGI (NCI 60 cell lines; mean graph ref NCI-60 database, listed as 757/21): 3.89; GI50 (NCI-H23): 30 nM; Log10GI50 (NCI-H23): -7.54 Molar; Log10LC50 (NCI-H23; listed as 757/9): -7.14 Molar; Log10LC50 (NCI-H23; listed as 757/21): > -4.00 Molar; Log10TGI (NCI-H23; listed as 757/21): > -4.00 Molar
